Legend:
Conditions in all cases: 72 h
MV4-11 [1] = experiment: cell viability (% survival relative to DMSO control, bortezomib = 0%); higher = less cytotoxic
Outline: (§1)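 Fifteen myeloid leukaemia cell lines were exposed to compounds at 1, 10, 100, 1000 or 10000 nM in 384-well plates for 72 h at 37 °C and 5% CO2. Viability was read by CellTiter-Glo luminescence and normalised, with vehicle as 100% and a 10 µM positive control as 0%. Values are percent survival averaged over duplicates.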

K-562 [2] = experiment: as above
Outline: as §1

Mono-Mac-6 [3] = experiment: as above
Outline: as §1

SHI-1 = experiment: as above
Outline: as §1

THP-1 = experiment: as above
Outline: as §1

BV-173 = experiment: as above
Outline: as §1

NOMO-1 [4] = experiment: as above
Outline: as §1

HEL = experiment: as above
Outline: as §1

MOLM-13 = experiment: as above
Outline: as §1

ML-2 = experiment: as above
Outline: as §1

HL-60 [5] = experiment: as above
Outline: as §1

KU-812 [6] = experiment: as above
Outline: as §1

LAMA-84 = experiment: as above
Outline: as §1

KG-1 = experiment: as above
Outline: as §1

KCL-22 = experiment: as above
Outline: as §1

MV4-11 [7] = tested on: MV4-11
Outline: (§2)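 The IC50 was read from log-logistic dose–response fits. Fifteen myeloid leukaemia lines were exposed for 72 h at 37 °C with 5% CO2 to five tenfold doses from 1 to 10,000 nM in duplicate. ATP luminescence, normalised to vehicle and to a 10 µM positive control, was fitted with four parameters.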

K-562 [8] = tested on: K-562
Outline: as §2

Mono-Mac-6 [9] = tested on: Mono-Mac-6
Outline: as §2

NOMO-1 [10] = tested on: NOMO-1
Outline: as §2

KU-812 [11] = tested on: KU-812
Outline: as §2

HL-60 [12] = experiment: cell viability (% survival relative to DMSO control); higher = less cytotoxic
Outline: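 HL-60 cells in RPMI 1640 with 10% FBS were rescreened against the full library on 384-well plates at five tenfold concentrations, 1–10,000 nM, in duplicate. Each screen was run with DMSO or 100 nM of one of three metabolic inhibitors, for 72 h at 37 °C, 5% CO2. Viability was read by CellTiter-Glo and normalised to DMSO and 10 μM proteasome-inhibitor wells. Where given, area under the curve came from four-parameter log-logistic fits (drc, PharmacoGx).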

C[C@H](NC(=O)c1sccc1OCc1ccc(Cl)cc1)c1ccccc1
cell viability [%]
Conditions | 1 nM | 10 nM | 100 nM | 1000 nM | 10000 nM
BV-173 | 93.5 | 99.7 | 89.2 | 90.1 | 50.4
HEL | 98.3 | 101 | 97.6 | 97.5 | 91.4
HL-60 [5] | 90.6 | 84.1 | 106 | 35.7 | 56
K-562 [2] | 96.4 | 93.3 | 87.6 | 97.2 | 62
KCL-22 | 111 | 106 | 97.8 | 84 | 65.6
KG-1 | 94 | 103 | 92.1 | 91.9 | 61.4
KU-812 [6] | 84.6 | 96.1 | 94.8 | 95.8 | 59.8
LAMA-84 | 94.2 | 100 | 94 | 98.9 | 65.4
ML-2 | 104 | 108 | 98.8 | 106 | 72.4
MOLM-13 | 93.5 | 95.7 | 96.8 | 109 | 102
MV4-11 [1] | 89.3 | 102 | 83 | 96.1 | 59.9
Mono-Mac-6 [3] | 88.8 | 102 | 102 | 98.3 | 88.8
NOMO-1 [4] | 96.6 | 108 | 99.3 | 102 | 101
SHI-1 | 82.5 | 98.7 | 97.9 | 95.4 | 75.7
THP-1 | 101 | 103 | 99 | 103 | 92.1

Conditions | IC50 (cell viability) [µM]
K-562 [8] | > 10
KU-812 [11] | > 10
MV4-11 [7] | > 10
Mono-Mac-6 [9] | > 10
NOMO-1 [10] | > 10

cell viability [%], HL-60 [12]
Conditions | 0.001 µM | 0.01 µM | 0.1 µM | 1 µM | 10 µM
co-treatment: AZD3965 100 nM | 70.8 | 87.5 | 99.14 | 103 | 92.2
co-treatment: DMSO vehicle | 99.5 | 98.9 | 96.69 | 104 | 97.6
co-treatment: GSK2194069 100 nM | 83.9 | 89.91 | 98.7 | 74.5 | 92.5
co-treatment: pictilisib 100 nM | 90.8 | 95.7 | 94.9 | 95.2 | 108

From the supplement of paper PMC8671470
